Experimental data reported in the OligoGym collection.
“And” between values parts separate entries of the source, which are not always exact repeats. Equal entries are not always repeated. After the bases stand the sugars from the 5' end (letter, count) and the backbone: PS all phosphorothioate, else s phosphorothioate and o phosphodiester by linkage. Methylation of C is not given here. e = 2'-O-(2-methoxyethyl) (MOE); k = constrained ethyl (cEt); d = 2'-deoxy (DNA)

Biological target: IRF4
Conditions: ASO

Sequence	target mRNA inhibition (SK-MEL-28, 4 µM)	other results
TCAGTTTGTGAAGCAT (sugars k3 d9 k3 e1, PS)		target mRNA inhibition (MM.1R, 0.074 µM): 28%; target mRNA inhibition (MM.1R, 0.222 µM): 22%; target mRNA inhibition (MM.1R, 0.666 µM): 43%; target mRNA inhibition (MM.1R, 1 µM): 58%; target mRNA inhibition (MM.1R, 2 µM): 64%
TCAGTTTGTGAAGCAT (sugars kddddddddddkekek, PS)		target mRNA inhibition (MM.1R, 1 µM): 21%
TCAGTTTGTGAAGCAT (sugars kdddddddddkekeke, PS)		target mRNA inhibition (MM.1R, 1 µM): 9%
TCAGTTTGTGAAGCAT (sugars kkdddddddddekeke, PS)		target mRNA inhibition (MM.1R, 1 µM): 45%
TCAGTTTGTGAAGCAT (sugars kkdddddddddkekek, PS)		target mRNA inhibition (MM.1R, 0.074 µM): 9%; target mRNA inhibition (MM.1R, 0.222 µM): 27%; target mRNA inhibition (MM.1R, 0.666 µM): 46%; target mRNA inhibition (MM.1R, 1 µM): 58%; target mRNA inhibition (MM.1R, 2 µM): 73%
TCAGTTTGTGAAGCAT (sugars kkkddddddddkekek, PS)		target mRNA inhibition (MM.1R, 1 µM): 41%
TCATGATGTATACCAA (sugars k3 d10 k3, PS)	65%	
TCCAACCTTTATGATT (sugars k3 d10 k3, PS)		target mRNA inhibition (MM.1R, 1 µM): -3%
TCCACCCTCCGTCTCA (sugars k3 d10 k3, PS)		target mRNA inhibition (MM.1R, 1 µM): -9%
TCCAGAAAATTCAGCT (sugars k3 d10 k3, PS)	48%	
TCCATTGGAGGAGGGT (sugars k3 d10 k3, PS)	33%	
TCCCACTGTCACTATG (sugars k3 d10 k3, PS)	15%	
TCCCCGTATCAAAAAA (sugars k3 d10 k3, PS)	-12%	
TCCCGAGGCCGGAGAC (sugars k3 d10 k3, PS)	-27%	
TCCCTAGGTCATACCC (sugars k3 d10 k3, PS)	58%	
TCCCTCCAGCTTCGGT (sugars k3 d10 k3, PS)		target mRNA inhibition (MM.1R, 1 µM): -21%
TCCGCTTGGAGAATTA (sugars k3 d10 k3, PS)	13%	
TCCTAACCCTACCCTT (sugars k3 d10 k3, PS)	30%	
TCCTAGGTTTCAGTTG (sugars k3 d10 k3, PS)	48%	
TCCTATGGTCAGCCTC (sugars k3 d10 k3, PS)	48%	
TCCTGGCAGTGCTCTC (sugars k3 d10 k3, PS)	60%	
TCCTGTAGTATGAGAA (sugars k3 d10 k3, PS)		target mRNA inhibition (MM.1R, 1 µM): 22%
TCCTTTCCTACAGATC (sugars k3 d10 k3, PS)	33%	
TCGAGATCAGTCTCAA (sugars k3 d10 k3, PS)	58% and 82%	

Sequence	target mRNA inhibition (SK-MEL-28, 4 µM)	other results
TCGCCCATGAGTTGAA (sugars k3 d10 k3, PS)	39%	
TCGGTCCACATACCTG (sugars k3 d10 k3, PS)	39%	
TCTAAACCAGCATATT (sugars k3 d10 k3, PS)	33%	
TCTAAGGCAAGCTGAA (sugars k3 d10 k3, PS)	21%	
TCTACAAGGTCTGAGT (sugars k3 d10 k3, PS)	57%	
TCTATAAGATGTATAC (sugars k3 d10 k3, PS)	26%	
TCTATAGTGTTCCAGG (sugars kdddddddddkekeke, PS)		target mRNA inhibition (MM.1R, 1 µM): 12%
TCTATGGGATTATATA (sugars k3 d10 k3, PS)	26%	
TCTCAAGGAGATCCAC (sugars k3 d10 k3, PS)	1%	
TCTCACGCAGTGCACC (sugars k3 d10 k3, PS)	44%	
TCTGAATTGTTACTAA (sugars k3 d10 k3, PS)	35%	
TCTGAGCAGAACGAGG (sugars k3 d10 k3, PS)	47%	
TCTGAGGGTCTGGAAA (sugars k4 d8 k4, PS)	3%	
TCTGATCCGGACTCTC (sugars k3 d10 k3, PS)	41%	
TCTTACTCCGCTGAGT (sugars k3 d10 k3, PS)	35%	
TCTTATGCATGTTCCT (sugars k3 d10 k3, PS)	62%	
TCTTTATAGTAGGTAA (sugars k3 d10 k3, PS)		target mRNA inhibition (MM.1R, 1 µM): 14%
TCTTTATGCGAAGAAT (sugars k3 d10 k3, PS)	42%	
TGACAGCCGAAGCATT (sugars k3 d10 k3, PS)	38%	
TGACATAAAGGACCCC (sugars k3 d10 k3, PS)	48%	
TGAGAAAGCATGGCTC (sugars k3 d10 k3, PS)	40%	
TGAGACTACACCTACA (sugars k3 d10 k3, PS)	19%	
TGAGAGTAAACTTGGC (sugars k3 d10 k3, PS)	65%	target mRNA inhibition (MM.1R, 0.0625 µM): -3%; target mRNA inhibition (MM.1R, 0.074 µM): 5%; target mRNA inhibition (MM.1R, 0.222 µM): 1%; target mRNA inhibition (MM.1R, 0.25 µM): 11%; target mRNA inhibition (MM.1R, 0.666 µM): 18%; target mRNA inhibition (MM.1R, 1 µM): 20%; target mRNA inhibition (MM.1R, 2 µM): 32%; target mRNA inhibition (MM.1R, 4 µM): 44%
